Laboratory results from US10287297B2, “Epoxyazulene derivatives useful for treating cancer and diabetes” (The United States of America, as represented by the …, priority 2015, dated 2019).

Experiments:
Type in all cases: cell-based
CCRF-CEM = experiment: NCI 60 cell assay, leukemia CCRF-CEM; settings: Homo sapiens, 48 h, drug exposure two days, SRB endpoint, read-out: GI-50 value
Experimental: (§1) Samples were tested in the standard National Cancer Institute 60-cell line protocol. First, they were tested against all 60 cell lines in a single final concentration of 10 micromolar. Then, they were separately tested in five 10-fold dilutions. The drug exposure was two days, with an SRB endpoint.

HL-60(TB) = experiment: NCI 60 cell assay, leukemia HL-60(TB); settings: Homo sapiens, 48 h; HL-60(TB) (leukemia); drug exposure two days, SRB endpoint; read-out: GI-50 value
Experimental: as §1

MOLT-4 = experiment: NCI 60 cell assay, leukemia MOLT-4; settings: Homo sapiens, 48 h; MOLT-4 (leukemia); drug exposure two days, SRB endpoint; read-out: GI-50 value
Experimental: as §1

RPMI-8226 = experiment: NCI 60 cell assay, leukemia RPMI-8226; settings: Homo sapiens, 48 h; RPMI-8226 (leukemia); drug exposure two days, SRB endpoint; read-out: GI-50 value
Experimental: as §1

SR = experiment: NCI 60 cell assay, leukemia SR; settings: Homo sapiens, 48 h, drug exposure two days, SRB endpoint, read-out: GI-50 value
Experimental: as §1

A549/ATCC = experiment: NCI 60 cell assay, NSCLC A549/ATCC; settings: Homo sapiens, 48 h, drug exposure two days, SRB endpoint, read-out: GI-50 value
Experimental: as §1

EKVX = experiment: NCI 60 cell assay, NSCLC EKVX; settings: Homo sapiens, 48 h, drug exposure two days, SRB endpoint, read-out: GI-50 value
Experimental: as §1

HOP-92 = experiment: NCI 60 cell assay, NSCLC HOP-92; settings: Homo sapiens, 48 h; HOP-92 (NSCLC); drug exposure two days, SRB endpoint; read-out: GI-50 value
Experimental: as §1

NCI-H226 = experiment: NCI 60 cell assay, NSCLC NCI-H226; settings: Homo sapiens, 48 h, drug exposure two days, SRB endpoint, read-out: GI-50 value
Experimental: as §1

NCI-H322M = experiment: NCI 60 cell assay, NSCLC NCI-H322M; settings: Homo sapiens, 48 h, drug exposure two days, SRB endpoint, read-out: GI-50 value
Experimental: as §1

NCI-H460 = experiment: NCI 60 cell assay, NSCLC NCI-H460; settings: Homo sapiens, 48 h, drug exposure two days, SRB endpoint, read-out: GI-50 value
Experimental: as §1

NCI-H522 = experiment: NCI 60 cell assay, NSCLC NCI-H522; settings: Homo sapiens, 48 h, drug exposure two days, SRB endpoint, read-out: GI-50 value
Experimental: as §1

HCT-116 = experiment: NCI 60 cell assay, colon HCT-116; settings: Homo sapiens, 48 h; HCT-116 (colon); drug exposure two days, SRB endpoint; read-out: GI-50 value
Experimental: as §1

HCT-15 = experiment: NCI 60 cell assay, colon HCT-15; settings: Homo sapiens, 48 h; HCT-15 (colon); drug exposure two days, SRB endpoint; read-out: GI-50 value
Experimental: as §1

HT29 = experiment: NCI 60 cell assay, colon HT29; settings: Homo sapiens, HT-29, 48 h, drug exposure two days, SRB endpoint, read-out: GI-50 value
Experimental: as §1

SF-539 = experiment: NCI 60 cell assay, CNS SF-539; settings: Homo sapiens, 48 h; SF-539 (CNS); drug exposure two days, SRB endpoint; read-out: GI-50 value
Experimental: as §1

U251 = experiment: NCI 60 cell assay, CNS U251; settings: Homo sapiens, U-251, 48 h, drug exposure two days, SRB endpoint, read-out: GI-50 value
Experimental: as §1

LOX IMVI = experiment: NCI 60 cell assay, melanoma LOX IMVI; settings: Homo sapiens, 48 h, drug exposure two days, SRB endpoint, read-out: GI-50 value
Experimental: as §1

MDA-MB-435 = experiment: NCI 60 cell assay, melanoma MDA-MB-435; settings: Homo sapiens, 48 h; MDA-MB-435 (melanoma); drug exposure two days, SRB endpoint; read-out: GI-50 value
Experimental: as §1

SK-MEL-5 = experiment: NCI 60 cell assay, melanoma SK-MEL-5; settings: Homo sapiens, 48 h; SK-MEL-5 (melanoma); drug exposure two days, SRB endpoint; read-out: GI-50 value
Experimental: as §1

UACC-62 = experiment: NCI 60 cell assay, melanoma UACC-62; settings: Homo sapiens, 48 h; UACC-62 (melanoma); drug exposure two days, SRB endpoint; read-out: GI-50 value
Experimental: as §1

IGROV1 = experiment: NCI 60 cell assay, ovarian IGROV1; settings: Homo sapiens, IGROV-1, 48 h, drug exposure two days, SRB endpoint, read-out: GI-50 value
Experimental: as §1

OVCAR-3 = experiment: NCI 60 cell assay, ovarian OVCAR-3; settings: Homo sapiens, 48 h; OVCAR-3 (ovarian); drug exposure two days, SRB endpoint; read-out: GI-50 value
Experimental: as §1

OVCAR-5 = experiment: NCI 60 cell assay, ovarian OVCAR-5; settings: Homo sapiens, 48 h; OVCAR-5 (ovarian); drug exposure two days, SRB endpoint; read-out: GI-50 value
Experimental: as §1

786-0 = experiment: NCI 60 cell assay, renal 786-0; settings: Homo sapiens, 48 h; 786-0 (renal); drug exposure two days, SRB endpoint; read-out: GI-50 value
Experimental: as §1

ACHN = experiment: NCI 60 cell assay, renal ACHN; settings: Homo sapiens, 48 h, drug exposure two days, SRB endpoint, read-out: GI-50 value
Experimental: as §1

CAKI-1 = experiment: NCI 60 cell assay, renal CAKI-1; settings: Homo sapiens, 48 h; CAKI-1 (renal); drug exposure two days, SRB endpoint; read-out: GI-50 value
Experimental: as §1

DU-145 = experiment: NCI 60 cell assay, prostate DU-145; settings: Homo sapiens, 48 h; DU-145 (prostate); drug exposure two days, SRB endpoint; read-out: GI-50 value
Experimental: as §1

MDA-MB-231/ATCC = experiment: NCI 60 cell assay, breast MDA-MB-231/ATCC; settings: Homo sapiens, 48 h; MDA-MB-231/ATCC (breast); drug exposure two days, SRB endpoint; read-out: GI-50 value
Experimental: as §1

HS 578T = experiment: NCI 60 cell assay, breast HS 578T; settings: Homo sapiens, 48 h; HS 578T (breast); drug exposure two days, SRB endpoint; read-out: GI-50 value
Experimental: as §1

BT-549 = experiment: NCI 60 cell assay, breast BT-549; settings: Homo sapiens, 48 h; BT-549 (breast); drug exposure two days, SRB endpoint; read-out: GI-50 value
Experimental: as §1

T-47D = experiment: NCI 60 cell assay, breast T-47D; settings: Homo sapiens, T47D, 48 h; T-47D (breast); drug exposure two days, SRB endpoint; read-out: GI-50 value
Experimental: as §1

MDA-MB-468 = experiment: NCI 60 cell assay, breast MDA-MB-468; settings: Homo sapiens, 48 h; MDA-MB-468 (breast); drug exposure two days, SRB endpoint; read-out: GI-50 value
Experimental: as §1

| SMILES | GI50 (CCRF-CEM) [µM] | GI50 (HL-60(TB)) [µM] | GI50 (MOLT-4) [µM] | GI50 (RPMI-8226) [µM] | GI50 (SR) [µM] | GI50 (A549/ATCC) [µM] | GI50 (EKVX) [µM] | GI50 (HOP-92) [µM] | GI50 (NCI-H226) [µM] | GI50 (NCI-H322M) [µM] | GI50 (NCI-H460) [µM] | GI50 (NCI-H522) [µM] | GI50 (HCT-116) [µM] | GI50 (HCT-15) [µM] | GI50 (HT29) [µM] | GI50 (SF-539) [µM] | GI50 (U251) [µM] | GI50 (LOX IMVI) [µM] | GI50 (MDA-MB-435) [µM] | GI50 (SK-MEL-5) [µM] | further results |
| --- | --- | --- | --- | --- | --- | --- | --- | --- | --- | --- | --- | --- | --- | --- | --- | --- | --- | --- | --- | --- | --- |
| CC1=C2[C@@H](CC1)[C@]1(C)O[C@@](C3CC3)(C[C@H]1OC(=O)CO)[C@H]2OC(=O)C=Cc1ccccc1 [Compound (Is), (3aR,4S,5R,7R,8S)-7-cyclopropyl-5-(2-hydroxyacetoxy)-1,4-dimethyl-2,3,3a,4,5,6,7,8-octahydro-4,7-epoxyazulen-8-yl cinnamate] | 19 | 12 | 16 | 20 | 17 | 14 | 14 | 17 | 17 | 17 | 18 | 17 | 16 | 14 | 17 | 17 | 15 | 17 | 17 | 18 | GI50 (UACC-62): 15 µM; GI50 (IGROV1): 19 µM; GI50 (OVCAR-3): 16 µM; GI50 (OVCAR-5): 17 µM; GI50 (786-0): 13 µM; GI50 (ACHN): 0.028 µM; GI50 (CAKI-1): 11 µM; GI50 (DU-145): 18 µM; GI50 (MDA-MB-231/ATCC): 18 µM; GI50 (HS 578T): 0.023 µM; GI50 (BT-549): 0.21 µM; GI50 (T-47D): 14 µM; GI50 (MDA-MB-468): 15 µM |
| CC1=C2[C@@H](CC1)[C@]1(C)O[C@@](C(C)C)(C[C@H]1OC(=O)[C@H](C)O)[C@H]2OC(=O)C=Cc1ccccc1 [(Il), (3aR,4S,5R,7R,8S)-5-(((S)-2-hydroxypropanoyl)oxy)-7-isopropyl-1,4-dimethyl-2,3,3a,4,5,6,7,8-octahydro-4,7-epoxyazulen-8-yl cinnamate] | 16 | 11 | 10 | 8 | 13 | 13 | 10 | 6 | 11 | 19 | 15 | 13 | 12 | 12 | 14 | 15 | 14 | 15 | 15 | 13 | GI50 (UACC-62): 13 µM; GI50 (IGROV1): 19 µM; GI50 (OVCAR-3): 13 µM; GI50 (OVCAR-5): 18 µM; GI50 (786-0): 13 µM; GI50 (ACHN): 0.09 µM; GI50 (CAKI-1): 7.2 µM; GI50 (DU-145): 17 µM; GI50 (MDA-MB-231/ATCC): 15 µM; GI50 (HS 578T): 0.098 µM; GI50 (BT-549): 1.4 µM; GI50 (T-47D): 7.2 µM; GI50 (MDA-MB-468): 11 µM |
